In patent US9394264B2 (Receptos, Inc., priority 2009, dated 2016):

The compounds below were run against S1P1/EDG1 (Homo sapiens, UniProt P21453) (assay: S1P1 CRE-bla CHOK1 reporter assay (inhibition of Forskolin induced cAMP)). Settings: agonist activity range, S1P1 CRE-bla CHOK1 cells, 2 μM Forskolin; read-out: S1P1 ACTIVITY.
S1P1/EDG1, sequence (P21453 whole entry): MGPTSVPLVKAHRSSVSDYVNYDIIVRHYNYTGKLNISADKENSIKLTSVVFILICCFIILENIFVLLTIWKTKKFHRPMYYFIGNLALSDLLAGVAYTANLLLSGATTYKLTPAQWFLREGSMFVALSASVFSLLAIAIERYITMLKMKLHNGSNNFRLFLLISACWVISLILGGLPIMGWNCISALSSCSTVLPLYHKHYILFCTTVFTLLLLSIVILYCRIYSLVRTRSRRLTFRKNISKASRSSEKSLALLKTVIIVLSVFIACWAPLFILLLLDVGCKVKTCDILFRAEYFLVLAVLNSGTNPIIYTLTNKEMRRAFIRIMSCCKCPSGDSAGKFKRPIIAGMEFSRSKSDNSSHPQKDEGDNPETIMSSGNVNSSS
Assay type: cell-based
Text: A mammalian expression plasmid containing S1P1/EDG1 cloned into pcDNA3.1 was purchased from Missouri S&T cDNA Resource Centre. The nucleotide and amino acid sequence of human S1P1/EDG1 are published in Hla and Maciag (J Biol Chem, 265(1990), 9308-9313). S1P1/pcDNA3.1 was transfected into the CRE-bla CHO K1 (Invitrogen) cell line, and stable single cell clones were selected using standard techniques. Expression of functional S1P1/EDG1 receptor was confirmed by cell surface FACS with a S1P1 antibody (R&D Systems, clone 218713) and S1P-mediated inhibition of Forskolin induced cAMP.
Cells were seeded into 384-well black wall/clear bottom plates at 10^4 cells/well/19.5 μl assay media (DMEM-phenol free, 0.5% charcoal/dextran stripped serum, 2 mM glutamine, 0.1 mM NEAA, 1 mM Na-Pyruvate, 25 mM Hepes) and incubated for 18 hrs at 37° C. in 5% CO2. Dose response curves (10-point) were generated in 10 mM Hepes, 0.1% Pluronic F127, in the presence of Forskolin. Cells were treated with 0.5 μl compound in the presence of 2 μM Forskolin for 4 hrs at 37° C. The FRET-based β-lactamase fluorescent substrate (LiveBLAzer™-FRET B/G Loading Kit CC4-AM; Invitrogen) was prepared according to manufacturer's directions, and incubated with cells for 2 hrs at room temperature. Plates were read at Ex:410/Em:458 and Ex:410/Em:522, and the response ratio determined. Data was analyzed by non-linear regression to determine the EC50 for inhibition of Forskolin induced cAMP.
Work on `CC(C)Oc1ccc(-c2nc(-c3cccc4c3CCC[C@H]4O)no2)cc1C#N` [Compound 1, (R)-5-(3-(5-hydroxy-5,6,7,8-tetrahydronaphthalen-1-yl)-1,2,4-oxadiazol-5-yl)-2-isopropoxybenzonitrile] yielded an EC50 of 0.05 to 0.5 nM.
For `CC(C)Oc1ccc(-c2nc(-c3cccc4c3CCC[C@@H]4O)no2)cc1C#N` [Compound 2, (S)-5-(3-(5-hydroxy-5,6,7,8-tetrahydronaphthalen-1-yl)-1,2,4-oxadiazol-5-yl)-2-isopropoxybenzonitrile], the EC50 was < 0.05 nM.
Compound `CC(C)Oc1ccc(-c2nc(-c3cccc4c3CCC[C@H]4N)no2)cc1C#N` [Compound 3, (R)-5-(3-(5-amino-5,6,7,8-tetrahydronaphthalen-1-yl)-1,2,4-oxadiazol-5-yl)-2-isopropoxybenzonitrile] has an EC50 of 0.5 to 5 nM.
`CC(C)Oc1ccc(-c2nc(-c3cccc4c3CCC[C@@H]4N)no2)cc1C#N` [Compound 4, (S)-5-(3-(5-amino-5,6,7,8-tetrahydronaphthalen-1-yl)-1,2,4-oxadiazol-5-yl)-2-isopropoxybenzonitrile] gave an EC50 of 0.05 to 0.5 nM.
Work on `CC(C)Oc1ccc(-c2nc(-c3cccc4c3CCC[C@H]4NC(=O)N(C)C)no2)cc1C#N` [Compound 5] yielded an EC50 of 0.05 to 0.5 nM.
For `CC(C)Oc1ccc(-c2nc(-c3cccc4c3CCC[C@@H]4NC(=O)N(C)C)no2)cc1C#N` [Compound 6], the EC50 was 0.05 to 0.5 nM.
Compound `CC(C)Oc1ccc(-c2nc(-c3cccc4c3CCC[C@H]4NC(=O)N3CC(O)C3)no2)cc1C#N` [Compound 7, (R)-N-(5-(5-(3-cyano-4-isopropoxyphenyl)-1,2,4-oxadiazol-3-yl)-1,2,3,4-tetrahydronaphthalen-1-yl)-3-hydroxyazetidine-1-carboxamide] has an EC50 of 0.05 to 0.5 nM.
Compound `CC(C)Oc1ccc(-c2nc(-c3cccc4c3CCC[C@@H]4NC(=O)N3CC(C(=O)O)C3)no2)cc1C#N` [Compound 9] has an EC50 of 0.05 to 0.5 nM.
Work on `CC(C)Oc1ccc(-c2nc(-c3cccc4c3CCC[C@H]4NC(=O)N3CC(C(=O)O)C3)no2)cc1C#N` [Compound 10] yielded an EC50 of 0.05 to 0.5 nM.
For `CC(C)Oc1ccc(-c2nc(-c3cccc4c3CCC[C@H]4NC(=O)N3CCCC3)no2)cc1C#N` [Compound 11], the EC50 was 0.05 to 0.5 nM.
In the case of `CC(C)Oc1ccc(-c2nc(-c3cccc4c3CCC[C@@H]4NC(=O)N3CCCC3)no2)cc1C#N` [Compound 12, (S)-N-(5-(5-(3-cyano-4-isopropoxyphenyl)-1,2,4-oxadiazol-3-yl)-1,2,3,4-tetrahydronaphthalen-1-yl)pyrrolidine-1-carboxamide], the EC50 is reported as 0.05 to 0.5 nM.
With `CC(C)Oc1ccc(-c2nc(-c3cccc4c3CCC[C@@H]4NC(=O)N3CC[C@H](O)C3)no2)cc1C#N` [Compound 14] the EC50 was 0.05 to 0.5 nM.
`CC(C)Oc1ccc(-c2nc(-c3cccc4c3CCC[C@@H]4NC(=O)N3CCOCC3)no2)cc1C#N` [Compound 15, (S)-N-(5-(5-(3-cyano-4-isopropoxyphenyl)-1,2,4-oxadiazol-3-yl)-1,2,3,4-tetrahydronaphthalen-1-yl)morpholine-4-carboxamide] gave an EC50 of 0.05 to 0.5 nM.
With `CC(C)Oc1ccc(-c2nc(-c3cccc4c3CCC[C@H]4NC(=O)N3CCOCC3)no2)cc1C#N` [Compound 16] the EC50 was 0.5 to 5 nM.
For `CC(C)Oc1ccc(-c2nc(-c3cccc4c3CCC[C@@H]4NC(=O)N3CCC[C@H](O)C3)no2)cc1C#N` [Compound 17], the EC50 was 0.5 to 5 nM.
In the case of `CC(C)Oc1ccc(-c2nc(-c3cccc4c3CCC[C@H]4NC(=O)N3CCC[C@H](O)C3)no2)cc1C#N` [Compound 18], the EC50 is reported as 0.5 to 5 nM.
In the case of `CC(C)Oc1ccc(-c2nc(-c3cccc4c3CCC[C@H]4NC(=O)N3CCC(O)CC3)no2)cc1C#N` [Compound 19], the EC50 is reported as 0.5 to 5 nM.
Work on `CC(C)Oc1ccc(-c2nc(-c3cccc4c3CCC[C@H]4NC(=O)N3CC[C@@H](N(C)C)C3)no2)cc1C#N` [Compound 20, (R)-N-((R)-5-(5-(3-cyano-4-isopropoxyphenyl)-1,2,4-oxadiazol-3-yl)-1,2,3,4-tetrahydronaphthalen-1-yl)-3-(dimethylamino)pyrrolidine-1-carboxamide] yielded an EC50 of 0.5 to 5 nM.
In the case of `CC(=O)N[C@@H]1CCCc2c(-c3noc(-c4ccc(OC(C)C)c(C#N)c4)n3)cccc21` [Compound 21, (R)-N-(5-(5-(3-cyano-4-isopropoxyphenyl)-1,2,4-oxadiazol-3-yl)-1,2,3,4-tetrahydronaphthalen-1-yl)acetamide], the EC50 is reported as 0.05 to 0.5 nM.
With `CC(=O)N[C@H]1CCCc2c(-c3noc(-c4ccc(OC(C)C)c(C#N)c4)n3)cccc21` [Compound 22, (S)-N-(5-(5-(3-cyano-4-isopropoxyphenyl)-1,2,4-oxadiazol-3-yl)-1,2,3,4-tetrahydronaphthalen-1-yl)acetamide] the EC50 was 0.05 to 0.5 nM.
Work on `COCC(=O)N[C@@H]1CCCc2c(-c3noc(-c4ccc(OC(C)C)c(C#N)c4)n3)cccc21` [Compound 23] yielded an EC50 of 0.5 to 5 nM.
Compound `COCC(=O)N[C@H]1CCCc2c(-c3noc(-c4ccc(OC(C)C)c(C#N)c4)n3)cccc21` [Compound 24] has an EC50 of 0.05 to 0.5 nM.
`CC(C)Oc1ccc(-c2nc(-c3cccc4c3CCC[C@H]4NC(=O)CN(C)C)no2)cc1C#N` [Compound 25] was tested, and the EC50 was 0.5 to 5 nM.
Compound `CC(C)Oc1ccc(-c2nc(-c3cccc4c3CCC[C@H]4NS(N)(=O)=O)no2)cc1C#N` [Compound 26, (R)-N-(5-(5-(3-cyano-4-isopropoxyphenyl)-1,2,4-oxadiazol-3-yl)-1,2,3,4-tetrahydronaphthalen-1-yl)sulfamide] has an EC50 of 0.05 to 0.5 nM.
In the case of `CC(C)Oc1ccc(-c2nc(-c3cccc4c3CCC[C@@H]4NS(N)(=O)=O)no2)cc1C#N` [Compound 27, (S)-N-(5-(5-(3-cyano-4-isopropoxyphenyl)-1,2,4-oxadiazol-3-yl)-1,2,3,4-tetrahydronaphthalen-1-yl)sulfamide], the EC50 is reported as < 0.05 nM.
`CC(C)Oc1ccc(-c2nc(-c3cccc4c3CCC[C@H]4NS(C)(=O)=O)no2)cc1C#N` [Compound 28, (R)-N-(5-(5-(3-cyano-4-isopropoxyphenyl)-1,2,4-oxadiazol-3-yl)-1,2,3,4-tetrahydronaphthalen-1-yl)methanesulfonamide] showed an EC50 of 0.05 to 0.5 nM.
With `CC(C)Oc1ccc(-c2nc(-c3cccc4c3CCC[C@H]4NS(=O)(=O)C3CC3)no2)cc1C#N` [Compound 30] the EC50 was 0.05 to 0.5 nM.
Work on `CC(C)Oc1ccc(-c2nc(-c3cccc4c3CCC[C@@H]4NS(=O)(=O)C3CC3)no2)cc1C#N` [Compound 31] yielded an EC50 of 0.5 to 5 nM.
`COCCS(=O)(=O)N[C@@H]1CCCc2c(-c3noc(-c4ccc(OC(C)C)c(C#N)c4)n3)cccc21` [Compound 32, (R)-N-(5-(5-(3-cyano-4-isopropoxyphenyl)-1,2,4-oxadiazol-3-yl)-1,2,3,4-tetrahydronaphthalen-1-yl)-2-methoxyethanesulfonamide] was tested, and the EC50 was 0.05 to 0.5 nM.
With `CC(C)Oc1ccc(-c2nc(-c3cccc4c3CCC[C@H]4NS(=O)(=O)CC(=O)O)no2)cc1C#N` [Compound 34, (R)-2-(N-(5-(5-(3-cyano-4-isopropoxyphenyl)-1,2,4-oxadiazol-3-yl)-1,2,3,4-tetrahydronaphthalen-1-yl)sulfamoyl)acetic acid] the EC50 was < 0.05 nM.
`CC(C)Oc1ccc(-c2nc(-c3cccc4c3CCC[C@@H]4NS(=O)(=O)CC(=O)O)no2)cc1C#N` [Compound 35, (S)-2-(N-(5-(5-(3-cyano-4-isopropoxyphenyl)-1,2,4-oxadiazol-3-yl)-1,2,3,4-tetrahydronaphthalen-1-yl)sulfamoyl)acetic acid] was tested, and the EC50 was < 0.05 nM.
`CC(C)Oc1ccc(-c2nc(-c3cccc4c3CCC[C@@H]4NS(=O)(=O)CCO)no2)cc1C#N` [Compound 36, (S)-N-(5-(5-(3-cyano-4-isopropoxyphenyl)-1,2,4-oxadiazol-3-yl)-1,2,3,4-tetrahydronaphthalen-1-yl)-2-hydroxyethanesulfonamide] was tested, and the EC50 was < 0.05 nM.
In the case of `CC(C)Oc1ccc(-c2nc(-c3cccc4c3CCC[C@@H]4NS(=O)(=O)CC(N)=O)no2)cc1C#N` [Compound 38], the EC50 is reported as < 0.05 nM.
For `CC(C)Oc1ccc(-c2nc(-c3cccc4c3CCC[C@H]4NS(=O)(=O)CC(N)=O)no2)cc1C#N` [Compound 39], the EC50 was < 0.05 nM.
With `CC(C)Oc1ccc(-c2nc(-c3cccc4c3CCC[C@H]4NS(=O)(=O)CC(=O)N(C)C)no2)cc1C#N` [Compound 40, (R)-2-(N-(5-(5-(3-cyano-4-isopropoxyphenyl)-1,2,4-oxadiazol-3-yl)-1,2,3,4-tetrahydronaphthalen-1-yl)sulfamoyl)-N,N-dimethylacetamide] the EC50 was < 0.05 nM.
`CC(C)Oc1ccc(-c2nc(-c3cccc4c3CCC[C@@H]4NS(=O)(=O)CC(=O)N(C)C)no2)cc1C#N` [Compound 41, (S)-2-(N-(5-(5-(3-cyano-4-isopropoxyphenyl)-1,2,4-oxadiazol-3-yl)-1,2,3,4-tetrahydronaphthalen-1-yl)sulfamoyl)-N,N-dimethylacetamide] was tested, and the EC50 was < 0.05 nM.
For `CC(C)Oc1ccc(-c2nc(-c3cccc4c3CCC[C@@H]4NS(=O)(=O)CC(=O)N3CCC3)no2)cc1C#N` [Compound 42], the EC50 was < 0.05 nM.
`CC(C)Oc1ccc(-c2nc(-c3cccc4c3CCC[C@H]4NS(=O)(=O)CC(=O)N3CCC3)no2)cc1C#N` [Compound 43] was tested, and the EC50 was < 0.05 nM.
In the case of `CC(C)Oc1ccc(-c2nc(-c3cccc4c3CCC[C@H]4NS(=O)(=O)CCN(C)C)no2)cc1C#N` [Compound 44, (R)-N-(5-(5-(3-cyano-4-isopropoxyphenyl)-1,2,4-oxadiazol-3-yl)-1,2,3,4-tetrahydronaphthalen-1-yl)-2-(dimethylamino)ethanesulfonamide], the EC50 is reported as 0.05 to 0.5 nM.
